This note sets out measurements from patent publication US12029738B2, “Antiproliferative compounds and methods of use thereof” (Celgene Corporation, priority 2017, dated 2024).

Each structure is given as a SMILES string. Where “and” joins values, the source holds several entries; their conditions need not be identical. Identical values can stand only once. Like-named read-outs stand apart in the source and are kept apart here.

The target in assay [1] is T1, dopamine D2S receptor (Homo sapiens, UniProt P14416).
T1 construct: host or cells: HEK-293 cells (membrane homogenates)
T1 sequence (P14416 1-414 isoform P14416-2): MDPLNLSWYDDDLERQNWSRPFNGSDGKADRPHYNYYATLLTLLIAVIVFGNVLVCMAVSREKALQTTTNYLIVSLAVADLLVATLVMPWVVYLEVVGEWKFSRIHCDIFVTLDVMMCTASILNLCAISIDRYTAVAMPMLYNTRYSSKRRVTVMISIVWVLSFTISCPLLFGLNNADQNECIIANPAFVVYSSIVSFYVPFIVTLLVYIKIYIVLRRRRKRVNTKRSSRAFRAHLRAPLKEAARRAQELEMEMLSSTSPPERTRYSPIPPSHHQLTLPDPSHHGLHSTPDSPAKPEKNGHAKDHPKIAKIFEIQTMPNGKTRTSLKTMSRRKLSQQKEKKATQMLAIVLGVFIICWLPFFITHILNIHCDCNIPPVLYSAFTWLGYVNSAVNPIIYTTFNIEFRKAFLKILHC
As to the kind of experiment: Dopamine D2S receptor agonist assay (impedance, HEK-293). It is filed as cell-based. As to the method:
(§1) α1 Adrenergic and Dopamine D2 Receptors. Methods: Binding and functional assays for α1 adrenergic and dopamine D2 receptors were performed by Eurofins Cerep according to their methods.
Agonist activity. The agonism of test compounds on the dopamine D2S receptor was assessed using human receptor-transfected HEK-293 cells. Agonist activity was determined by measuring compound effect on impedance modulation. In these experiments, HEK-293 cells were incubated in duplicate at 28° C. with test article. Compound A was tested at 0.01-30 μM. […] Dopamine (3 μM) was used as an agonist control. Impedance measurements were monitored for 10 minutes after ligand addition using cellular dielectric spectroscopy. The EC50 was defined as the concentration causing a half-maximum response, compared to the control agonist (dopamine) response.

Assay [2] has as its target T2, α1A adrenergic receptor (Homo sapiens, UniProt P35348).
T2 construct: host or cells: CHO cells
T2 sequence (P35348 1-466): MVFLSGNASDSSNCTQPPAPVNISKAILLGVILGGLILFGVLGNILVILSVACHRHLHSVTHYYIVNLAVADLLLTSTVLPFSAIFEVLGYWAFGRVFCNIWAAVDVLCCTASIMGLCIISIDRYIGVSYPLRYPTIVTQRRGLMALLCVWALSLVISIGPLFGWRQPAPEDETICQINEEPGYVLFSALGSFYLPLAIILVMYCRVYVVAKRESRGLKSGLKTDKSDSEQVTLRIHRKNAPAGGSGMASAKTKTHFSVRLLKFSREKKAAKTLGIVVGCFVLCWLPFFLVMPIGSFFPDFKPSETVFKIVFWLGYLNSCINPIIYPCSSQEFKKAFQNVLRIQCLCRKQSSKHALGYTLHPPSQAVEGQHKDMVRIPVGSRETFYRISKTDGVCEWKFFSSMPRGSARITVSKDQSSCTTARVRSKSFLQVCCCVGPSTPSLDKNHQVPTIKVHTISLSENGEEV
The assay can be described thus: α1A adrenergic receptor antagonist assay (calcium mobilization, CHO cells). It is filed as cell-based. Here is the method:
as §1
(§2) Antagonist activity. The antagonistic effects of test compounds on the α1A and α1B adrenergic receptors were measured using human receptor-transfected Chinese hamster ovary (CHO) cells. Antagonist activity was determined by measuring compound effect on agonist (epinephrine)-induced calcium mobilization in the α1A receptor assay or cAMP levels in the α1B receptor assay. In these experiments, CHO cells were incubated in duplicate at room temperature with test article and epinephrine at 3 nM in the α1A receptor assays or at 3000 nM in the α1B receptor assay. Compound A was tested in the α1A receptor assay at 0.01-30 μM. […] Compound 1 and Compound 2 were assayed at 0.03 to 30 μM in the α1A receptor assay and 0.03 to 100 μM in the α1B receptor assay. In the α1A receptor assay, cytosolic calcium levels were measured fluorometrically using the fluorescent probe, Fluo4 Direct. Intracellular cAMP levels in the α1B adrenergic receptor assay were measured by homogenous time-resolved fluorescence (HTRF). The antagonism IC50 was defined as the concentration causing a half-maximum inhibition of control agonist response.
(In general: Calcium flux is commonly read through the fluorescence of an indicator in the cells.)

For assay [3], the target named is T3, α1B adrenergic receptor (Homo sapiens, UniProt P35368).
T3 construct: host or cells: CHO cells
T3 sequence (P35368 1-520): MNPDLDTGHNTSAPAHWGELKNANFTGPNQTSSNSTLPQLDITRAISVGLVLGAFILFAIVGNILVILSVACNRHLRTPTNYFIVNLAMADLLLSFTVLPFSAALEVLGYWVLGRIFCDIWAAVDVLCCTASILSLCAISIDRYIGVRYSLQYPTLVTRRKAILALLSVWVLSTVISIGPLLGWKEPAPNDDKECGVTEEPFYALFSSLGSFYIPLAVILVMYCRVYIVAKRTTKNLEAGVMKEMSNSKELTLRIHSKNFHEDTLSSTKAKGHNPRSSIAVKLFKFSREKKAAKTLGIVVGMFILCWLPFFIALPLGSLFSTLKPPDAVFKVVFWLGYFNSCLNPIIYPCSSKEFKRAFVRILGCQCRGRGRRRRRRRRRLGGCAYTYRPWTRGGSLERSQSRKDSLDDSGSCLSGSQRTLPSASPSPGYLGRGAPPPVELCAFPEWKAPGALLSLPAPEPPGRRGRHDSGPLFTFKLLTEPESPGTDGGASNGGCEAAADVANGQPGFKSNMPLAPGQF
The assay can be described thus: α1B adrenergic receptor antagonist assay (cAMP, CHO cells). The format is cell-based. Here is the method:
as §1, §2

Assay [4] addresses T4, dopamine D2L receptor (Homo sapiens, UniProt P14416).
T4 construct: host or cells: HEK-293 cells (membrane homogenates)
The assay can be described thus: Dopamine D2L receptor radioligand binding (HEK-293). As to the method: as §1
Dopamine D2 Receptor. Binding at 10 μM. The binding assay evaluated the affinity of test articles for the dopamine D2 receptor in transfected human embryonic kidney (HEK)-293 cells. For determining the binding in the D2S receptor assay, test article was incubated with 0.3 nM [^3H] methylspiperone or 1 nM [^3H] 7-hydroxy-2-N,N-dipropylaminotetralin (7-OH-DPAT). [3H] Methylspiperone at 0.3 nM also was used as control ligand in the D2L binding assay. Cell membrane homogenates were incubated in duplicate at room temperature for 60 minutes with ligand in the absence or presence of test articles at 10 μM. After the incubation period, samples were filtered through glass fiber filters, the filters dried and then counted for radioactivity using a scintillation counter. Results are expressed as mean percent inhibition of control radioligand binding.
Binding IC50. To determine the binding IC50 in the D2 receptor assays, HEK-293 were tested as described above but with varying concentrations of test article. Compound A was tested at 0.01-30 μM in the D2S radioligand binding assay. […] Compound 1 was assayed at 0.03-100 μM in both the D2S and D2L assays, while Compound 2 was tested at 0.03-100 μM in the D2S assay and 0.01-100 μM in the D2L assays. The IC50 was defined as the concentration causing a half-maximum inhibition of control specific binding.

The subject of assay [5] is non-selective α1 adrenergic receptor. The assay can be described thus: α1 adrenergic receptor radioligand binding ([3H]prazosin). As to conditions: rat cerebral cortex; for Adrenergic α1 (non-selective) % Inhibition (10 μM): 0.25 nM [3H]prazosin; for IC50: [3H]prazosin. Here is the method: as §1
α1 Adrenergic Receptor. Binding at 10 μM. The binding assay evaluated the affinity of test article for the non-selective α1 adrenergic receptor in rat cerebral cortex. Membrane homogenates of cerebral cortex were incubated in duplicate for 60 minutes at room temperature with 0.25 nM [^3H]prazosin in the absence or presence of test articles at 10 μM. After the incubation period, samples were filtered through glass fiber filters, the filters dried and then counted for radioactivity using a scintillation counter. Results are expressed as mean percent inhibition of control radioligand binding.
Binding IC50. […] Compound A was tested at 0.01-30 μM. […] Compound 1 and Compound 2, the S-enantiomer of Compound 1, were assayed at 0.03-100 μM. Radioactivity was measured as described above. The IC50 was defined as the concentration causing a half-maximum inhibition of control specific binding.

The IC50 is the point on the concentration scale where inhibition reaches its midpoint. For orientation: inhibition means how much of the control response was suppressed. The EC50 is the concentration needed to bring the measured effect to its halfway point.

T4 sequence (P14416 whole entry): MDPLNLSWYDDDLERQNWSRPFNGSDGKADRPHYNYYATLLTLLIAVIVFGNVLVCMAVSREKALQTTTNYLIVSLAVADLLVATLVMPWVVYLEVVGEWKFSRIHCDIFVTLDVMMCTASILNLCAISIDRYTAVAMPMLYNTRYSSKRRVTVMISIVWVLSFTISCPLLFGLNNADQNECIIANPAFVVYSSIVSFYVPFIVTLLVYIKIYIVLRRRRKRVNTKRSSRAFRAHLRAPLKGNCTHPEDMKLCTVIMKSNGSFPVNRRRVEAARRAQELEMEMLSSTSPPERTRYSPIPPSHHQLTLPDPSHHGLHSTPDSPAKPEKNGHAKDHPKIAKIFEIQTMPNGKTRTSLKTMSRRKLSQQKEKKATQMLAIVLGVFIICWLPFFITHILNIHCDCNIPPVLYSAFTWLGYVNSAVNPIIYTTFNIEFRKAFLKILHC

Turning to `N#Cc1ccc(N2CCN(Cc3ccc(COc4cccc5c4CN(C4CCC(=O)NC4=O)C5=O)cc3)CC2)c(F)c1` (racemic) [Compound 1, 4-(4-(4-(((2-(2,6-dioxopiperidin-3-yl)-1-oxoisoindolin-4-yl)oxy)methyl)benzyl)piperazin-1-yl)-3-fluorobenzonitrile], the “D2S Agonism EC50” value in assay [1] (impedance, versus dopamine control) is “Negative”. Besides, the IC50 amounted to 980 nM in assay [2], 6900 nM in assay [3], 2300 nM in assay [4] and 3900 nM in assay [5]. The inhibition at 10 µM in assay [4] (read-out: D2L % Inhibition (10 μM)) was 55%. Further, the “Adrenergic α1 (non-selective) % Inhibition (10 μM)” value in assay [5] is recorded as 67%.

In the case of `O=C1CC[C@H](N2Cc3c(OCc4ccc(CN5CCN(c6ccc(F)cc6F)CC5)cc4)cccc3C2=O)C(=O)N1` [Compound B], in assay [1] (impedance, versus dopamine control, read-out: D2S Agonism EC50), the concentration giving a half-maximal response (EC50) was 2700 nM and 1900 nM. The IC50 turned out to be 6.4 nM in assay [2] (epinephrine 3 nM, calcium mobilization, read-out: Antagonism IC50 α1A); 78 nM in assay [3] (epinephrine 3000 nM, cAMP, read-out: Antagonism IC50 α1B); 84 nM in assay [4] (read-out: D2L Binding IC50); 24 nM in assay [5]. Besides, in assay [4] (10 μM), the “D2L % Inhibition (10 μM)” value came out at 103%. Besides, in assay [5], the “Adrenergic α1 (non-selective) % Inhibition (10 μM)” value is 98% and 100%.

In the case of `N#Cc1ccc(N2CCN(Cc3ccc(COc4cccc5c4CN([C@H]4CCC(=O)NC4=O)C5=O)cc3)CC2)c(F)c1` [Compound 2, (S)-4-(4-(4-(((2-(2,6-dioxopiperidin-3-yl)-1-oxoisoindolin-4-yl)oxy)methyl)benzyl)piperazin-1-yl)-3-fluorobenzonitrile], the EC50 in assay [1] was > 10000 nM. Moreover, the IC50 is 580 nM in assay [2], 2400 nM in assay [3], ~3000 nM in assay [4] and ~1300 nM in assay [5]. The “Adrenergic α1 (non-selective) % Inhibition (10 μM)” value in assay [5] was 62%.
